US4443436A, “C-20-Modified macrolide derivatives of the macrolide antibiotics tylosin, desmycosin, macrocin, and lactenocin” (Eli Lilly and Company, priority 1982, dated 1984)
≈ marks a conversion by molar mass, not a printed value.

Key:
[1] = test system: Staphylococcus aureus X1.1; assay: MIC, standard agar-dilution assay, Staphylococcus aureus X1.1; assay type: cell-based; details: Staphylococcus aureus X1.1; agar dilution
[2] = test system: Staphylococcus aureus V41; assay: MIC, standard agar-dilution assay, Staphylococcus aureus V41; assay type: cell-based; details: Staphylococcus aureus V41; penicillin-resistant strain; agar dilution
[3] = test system: Staphylococcus aureus X400; assay: MIC, standard agar-dilution assay, Staphylococcus aureus X400; assay type: cell-based; details: Staphylococcus aureus X400; methicillin-resistant strain; agar dilution
[4] = test system: Staphylococcus aureus S13E; assay: MIC, standard agar-dilution assay, Staphylococcus aureus S13E; assay type: cell-based; details: Staphylococcus aureus S13E; agar dilution
[5] = test system: Staphylococcus epidermidis EPI1; assay: MIC, standard agar-dilution assay, Staphylococcus epidermidis EPI1; assay type: cell-based; details: Staphylococcus epidermidis EPI1; agar dilution
[6] = test system: Staphylococcus epidermidis EPI2; assay: MIC, standard agar-dilution assay, Staphylococcus epidermidis EPI2; assay type: cell-based; details: Staphylococcus epidermidis EPI2; agar dilution
[7] = test system: Streptococcus pyogenes C203; assay: MIC, standard agar-dilution assay, Streptococcus pyogenes C203; assay type: cell-based; details: Streptococcus pyogenes C203; agar dilution
[8] = test system: Streptococcus Group D X66; assay: MIC, standard agar-dilution assay, Streptococcus Group D X66; assay type: cell-based; details: Streptococcus Group D X66; agar dilution
Streptococcus Group 9960 = assay: MIC, standard agar-dilution assay, Streptococcus Group 9960; assay type: cell-based; details: Streptococcus Group 9960; agar dilution
[9] = test system: Haemophilus influenzae Holt; assay: MIC, standard agar-dilution assay, Haemophilus influenzae Holt; assay type: cell-based; details: Haemophilus influenzae Holt; ampicillin-sensitive strain; agar dilution
[10] = test system: Haemophilus influenzae R252; assay: MIC, standard agar-dilution assay, Haemophilus influenzae R252; assay type: cell-based; details: Haemophilus influenzae R252; ampicillin-resistant strain; agar dilution
[11] = test system: Streptococcus pneumoniae Park I; assay: microbe, parasite or virus in culture; assay type: cell-based; details: Streptococcus pneumoniae Park I; agar dilution
Staphylococcus aureus = assay: MIC, broth-dilution microtiter test, Staphylococcus aureus; assay type: cell-based; details: broth-dilution microtiter
Source text: (§1) The MIC's in Table X were obtained using conventional broth-dilution microtiter tests.

Streptococcus bovis 80 = assay: MIC, broth-dilution microtiter test, Streptococcus bovis 80; assay type: cell-based; details: Streptococcus bovis 80; broth-dilution microtiter
Source text: as §1

[12] = test system: Pasteurella multocida 17E; assay: MIC, broth-dilution microtiter test, Pasteurella multocida 17E; assay type: cell-based; details: Pasteurella multocida 17E; bovine isolate; broth-dilution microtiter
Source text: as §1

[13] = test system: Pasteurella multocida 60A; assay: MIC, broth-dilution microtiter test, Pasteurella multocida 60A; assay type: cell-based; details: Pasteurella multocida 60A; avian isolate; broth-dilution microtiter
Source text: as §1

[14] = test system: Pasteurella hemolytica 22C; assay: MIC, broth-dilution microtiter test, Pasteurella hemolytica 22C; assay type: cell-based; details: Pasteurella hemolytica 22C; broth-dilution microtiter
Source text: as §1

Mycoplasma gallisepticum = assay: MIC, broth-dilution microtiter test, Mycoplasma gallisepticum; assay type: cell-based; details: Mycoplasma gallisepticum; broth-dilution microtiter
Source text: as §1

Mycoplasma hyorhinis = assay: MIC, broth-dilution microtiter test, Mycoplasma hyorhinis; assay type: cell-based; details: Mycoplasma hyorhinis; broth-dilution microtiter
Source text: as §1

[15] = test system: Streptococcus pyogenes C203; assay: In vivo protection of mice experimentally infected with S. pyogenes C203; details: mice, doses given 1 and 4 hours post-infection
Protocol: The C-20 modified derivatives of this invention have shown in vivo antimicrobial activity against experimentally-induced infections in laboratory animals. When two doses of test compound were administered to mice experimentally infected with S. pyogenes C203, the activity observed was measured as an ED50 value [effective dose in mg/kg to protect 50% of the test animals: see Warren Wick, et al., J. Bacteriol. 81, 233-235 (1961)].

Compound | MIC [1] | MIC [2] | MIC [3] | MIC [4] | MIC [5] | MIC [6] | MIC [7] | MIC [8] | MIC (Streptococcus Group 9960) | MIC [9] | MIC [10] | MIC [11] | MIC (Staphylococcus aureus) | MIC (Streptococcus bovis 80) | MIC [12] | MIC [13] | MIC [14] | MIC (Mycoplasma gallisepticum) | MIC (Mycoplasma hyorhinis) | also measured
CCC1OC(=O)CC(O)C(C)C(OC2OC(C)C(O)C(N(C)C)C2O)C(CCOc2ccc(CO)cc2)CC(C)C(=O)C=CC(C)=CC1COC1OC(C)C(O)C(OC)C1OC (stereo not drawn) [Compound 51a] | 0.5 µg/mL (≈ 0.568 µM) | 0.5 µg/mL (≈ 0.568 µM) | 1 µg/mL (≈ 1.14 µM) | 0.5 µg/mL (≈ 0.568 µM) | 0.5 µg/mL (≈ 0.568 µM) | 0.25 µg/mL (≈ 0.284 µM) | 0.5 µg/mL (≈ 0.568 µM) | 16 µg/mL (≈ 18.2 µM) | 16 µg/mL (≈ 18.2 µM) | 64 µg/mL (≈ 72.7 µM) | 32 µg/mL (≈ 36.4 µM) |  |  |  |  |  |  |  |  | 
CC(=O)O.CC(=O)O.CCC1OC(=O)CC(O)C(C)C(OC2OC(C)C(O)C(N(C)C)C2O)C(CCN)CC(C)C(=O)C=CC(C)=CC1COC1OC(C)C(O)C(OC)C1OC (stereo not drawn) [Compound 51b, 20-DH-DO-20-Aminodesmycosin diacetate] | 4 µg/mL | 4 µg/mL | 8 µg/mL | 4 µg/mL | 8 µg/mL | 2 µg/mL |  | 128 µg/mL | 128 µg/mL | 128 µg/mL | -- (Not active at 128 mcg/ml, the highest level tested) | 16 µg/mL |  |  |  |  |  |  |  | 
CCC1OC(=O)CC(O)C(C)C(OC2OC(C)C(O)C(N(C)C)C2O)C(CCNC(=O)COc2ccccc2)CC(C)C(=O)C=CC(C)=CC1COC1OC(C)C(O)C(OC)C1OC (stereo not drawn) [Compound 51c, 20-DH-DO-20-(N-phenoxyacetyl)aminodesmycosin] | 0.25 µg/mL (≈ 0.276 µM) | 0.25 µg/mL (≈ 0.276 µM) | 0.5 µg/mL (≈ 0.551 µM) | 0.25 µg/mL (≈ 0.276 µM) | 0.25 µg/mL (≈ 0.276 µM) | 0.12 µg/mL (≈ 0.132 µM) | 0.25 µg/mL (≈ 0.276 µM) | 1 µg/mL (≈ 1.1 µM) | 1 µg/mL (≈ 1.1 µM) | 8 µg/mL (≈ 8.82 µM) | 8 µg/mL (≈ 8.82 µM) | 0.25 µg/mL (≈ 0.276 µM) |  |  |  |  |  |  |  | 
CCC(=O)OC1C(OC2C(CCN3C(=O)c4ccccc4C3=O)CC(C)C(=O)C=CC(C)=CC(COC3OC(C)C(O)C(OC)C3OC)C(CC)OC(=O)CC(O)C2C)OC(C)C(OC2CC(C)(O)C(O)C(C)O2)C1N(C)C (stereo not drawn) [Compound 62, 20-DH-DO-20-N-Phthalimido-2'-O-propionyltylosin] | 1 µg/mL (≈ 0.906 µM) | 1 µg/mL (≈ 0.906 µM) | 2 µg/mL (≈ 1.81 µM) | 1 µg/mL (≈ 0.906 µM) | 1 µg/mL (≈ 0.906 µM) | 1 µg/mL (≈ 0.906 µM) |  | -- (Not active at 128 mcg/ml, the highest level tested) | -- (Not active at 128 mcg/ml, the highest level tested) | -- (Not active at 128 mcg/ml, the highest level tested) | -- (Not active at 128 mcg/ml, the highest level tested) | 2 µg/mL (≈ 1.81 µM) | 3.12 µg/mL (≈ 2.83 µM) | 12.5 µg/mL (≈ 11.3 µM) | -- (Not active at 50 mcg/ml, the highest level tested) | -- (Not active at 50 mcg/ml, the highest level tested) | -- (Not active at 50 mcg/ml, the highest level tested) | 1.56 µg/mL (≈ 1.41 µM) | 50 µg/mL (≈ 45.3 µM) | ED50, Oral ([15]; oral): 66 mg/kg × 2; ED50, Subcutaneous ([15]; subcutaneous): > 6.3 mg/kg × 2
CCC1OC(=O)CC(O)C(C)C(OC2OC(C)C(OC3CC(C)(O)C(O)C(C)O3)C(N(C)C)C2OC(C)=O)C(CCOc2ccccc2)CC(C)C(=O)C=CC(C)=CC1COC1OC(C)C(O)C(OC)C1OC (stereo not drawn) [Compound 64, 20-DH-20-O-Phenyl-2'-O-acetyltylosin] | 2 µg/mL (≈ 1.93 µM) | 2 µg/mL (≈ 1.93 µM) | 4 µg/mL (≈ 3.86 µM) | 2 µg/mL (≈ 1.93 µM) | 2 µg/mL (≈ 1.93 µM) | 2 µg/mL (≈ 1.93 µM) | 2 µg/mL (≈ 1.93 µM) | -- (Not active at 128 mcg/ml, the highest level tested) | -- (Not active at 128 mcg/ml, the highest level tested) | -- (Not active at 128 mcg/ml, the highest level tested) | -- (Not active at 128 mcg/ml, the highest level tested) |  | 3.12 µg/mL (≈ 3.01 µM) | 12.5 µg/mL (≈ 12.1 µM) | -- (Not active at 50 mcg/ml, the highest level tested) | -- (Not active at 50 mcg/ml, the highest level tested) | -- (Not active at 50 mcg/ml, the highest level tested) | 1.56 µg/mL (≈ 1.51 µM) | 50 µg/mL (≈ 48.3 µM) | 
